Where a name gives a salt, the structure may show the parent alone.

The values below come from patent publication US6306860A, “2,5-pyridinedicarboxylic acid derivatives” (Dong Wha Pharm. Inc. Co., Ltd., priority 1998, dated 2001).

Test [1] deals with T1, HBV polymerase (Hepatitis B virus genotype D subtype ayw, UniProt P03156).
T1 construct: made in house; host or cells: E. coli
As to the kind of experiment: Inhibitory activities against HBV polymerase (reverse transcriptase activity) in vitro. Format: biochemical. The settings on record: read-out: Inhibitory activity of HBV-RT (%); for inhibition at 0.01 µg/mL: 0.01 μg/ml; for inhibition at 0.1 µg/mL: 0.1 μg/ml; for inhibition at 1 µg/mL: 1 μg/ml. From the text:
Experiment 1:Inhibitory Activities Against HBV Polymerase in vitro
Recently, the inventors of the present invention have produced a recombinant HBV polymerase that is expressed from E.coli transformant, measured its enzyme activity and filed patent applications threrof [Korean Pat. Appl. Nos. 94-3918 and 96-33998].
The inventors have also established a method of measuring the reverse transcriptase activity of HBV polymerase in vitro. The fundamental principle is the same as the ELISA method, and after reacting the substrate with biotin- and DIG-modified nucleotide, a method of recognizing the polymerized substrate as anti-DIG antibody with peroxidase was used.
20 μl of HBV polymerase, 20 μl of reaction mixture and 20 μl of test compound was mixed and reacted at 14° C.~30° C. for 18~24 hours. Then, the inhibitory effect of the test compound against reverse transcriptase activity in the HBV polymerase was examined, compared with the results of control tests without the test compound.

In test [2] the target is T2, HIV reverse transcriptase (Human immunodeficiency virus type 1 group M subtype B, UniProt P04585).
T2 construct: purchased Boehringer Mannheim
As to the kind of experiment: In vitro inhibition test against HIV reverse transcriptase. The test is classed as biochemical. The settings on record: read-out: Inhibitory activity of HIV-RT (%); for inhibition at 0.1 µg/mL: 0.1 μg/ml; for inhibition at 1 µg/mL: 1 μg/ml. The method, then: Experiment 2: The in vitro Inhibition Test Against HIV Reverse Transcriptase
The inhibitory activity in vitro was measured using a non-radioactive reverse transcriptase assay Kit (Boehringer Mannheim).
At first, 20 μl(40 ng) of HIV-RT was added to the wells, coated with streptavidin and with the addition of 20 μl reaction mixture containing template/primer hybrid poly(A)/oligo(dT)15 and DIG-(digoxigenin)-dUTP, biotin-dUTP and TTP, 20 μl of test compound was added and reacted at 37° C. for 1 hour. The control without test compound was used for the comparison of related activity. Since DNA containing nucleotide labeled with digoxigenin and biotine was prepared by the action of HIV-RT, it was combined with streptavidin coated at the bottom of the wells. After the reaction was completed, remaining impurities were removed by washing each well with 250 μl buffer solution (pH 7.0) for 30 seconds 5 times and with the addition of 200 μl anti-DIG-POD antibody, the mixture was reacted at 37° C. for 1 hour. For the removal of remaining impurities again, the reacting solution was washed with a buffer solution and with the addition of 200 μl ABTS™ each, a substrate of POD(peroxidase), the solution was reacted at room temperature for 30 minutes. The absorbance was read by ELISA reader at 405 nm for the assay of reverse transcriptase activity and its inhibition activity.

T1 sequence (P03156 whole entry): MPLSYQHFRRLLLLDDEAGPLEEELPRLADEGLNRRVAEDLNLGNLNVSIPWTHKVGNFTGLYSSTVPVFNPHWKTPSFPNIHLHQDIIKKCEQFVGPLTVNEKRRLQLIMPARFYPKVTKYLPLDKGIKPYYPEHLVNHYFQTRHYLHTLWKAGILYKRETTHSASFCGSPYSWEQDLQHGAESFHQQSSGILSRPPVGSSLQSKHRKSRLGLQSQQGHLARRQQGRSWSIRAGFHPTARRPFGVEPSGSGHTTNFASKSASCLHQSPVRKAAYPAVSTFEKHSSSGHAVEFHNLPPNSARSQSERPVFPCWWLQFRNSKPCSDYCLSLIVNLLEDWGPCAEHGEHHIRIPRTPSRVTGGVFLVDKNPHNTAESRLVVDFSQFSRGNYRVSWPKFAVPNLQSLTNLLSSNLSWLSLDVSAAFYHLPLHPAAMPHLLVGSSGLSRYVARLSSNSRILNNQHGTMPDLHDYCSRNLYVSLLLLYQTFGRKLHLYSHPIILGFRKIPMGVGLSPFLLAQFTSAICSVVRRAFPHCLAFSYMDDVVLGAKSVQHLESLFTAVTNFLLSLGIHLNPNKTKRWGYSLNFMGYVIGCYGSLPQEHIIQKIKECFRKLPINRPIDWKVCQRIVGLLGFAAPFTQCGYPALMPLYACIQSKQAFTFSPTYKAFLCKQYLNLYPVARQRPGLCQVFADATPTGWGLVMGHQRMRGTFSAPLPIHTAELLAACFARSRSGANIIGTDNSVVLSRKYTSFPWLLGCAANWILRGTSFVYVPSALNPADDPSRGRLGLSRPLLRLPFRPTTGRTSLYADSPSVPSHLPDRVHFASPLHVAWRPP

In the case of `CCNc1cccnc1N1CCN(C(=O)c2ccc(C(=O)NCCN3CCOCC3)cn2)CC1` [Exam. 60, 2-[1-[3-(ethylamino)-2-pyridyl]piperazin-4-yl-carbonyl]-5-[N-[2-(morpholin4-yl)ethyl]carbamoyl]pyridine.HCl], in test [1], the inhibition at 0.01 µg/mL came out at 30%, the inhibition at 0.1 µg/mL turned out to be 52% and the inhibition at 1 µg/mL was determined as 66%. Also, in test [2], the inhibition at 0.1 µg/mL was found to be 55% and the inhibition at 1 µg/mL was determined as 73%.

`CC(C)Nc1cccnc1N1CCN(C(=O)c2ccc(C(=O)NCCc3c[nH]cn3)cn2)CC1` [Exam. 80, N-[2-(1H-imidazol4-yl)ethyl]-6-[1-[3-(isopropylamino)-2-pyridyl]piperazin-4-yl-carbonyl]nicotinamide]: in test [1], the inhibition at 0.01 µg/mL worked out at 52%, the inhibition at 0.1 µg/mL was 61% and the inhibition at 1 µg/mL stood at 70%. In test [2], the inhibition at 0.1 µg/mL was determined as 21% and the inhibition at 1 µg/mL is 48%.

Take `CCNc1cccnc1N1CCN(C(=O)c2ccc(C(=O)NCc3ccccn3)cn2)CC1` [Exam. 74, 6-[1-[3-(ethylamino)-2-pyridyl]piperazin-4-yl-carbonyl]-N-(2-pyridylmethyl)nicotinamide]: in test [1], the inhibition at 0.01 µg/mL turned out to be 19%, the inhibition at 0.1 µg/mL is 56% and the inhibition at 1 µg/mL was 70%. Moreover, in test [2], the inhibition at 0.1 µg/mL came out at 61% and the inhibition at 1 µg/mL was 80%.

`CCNc1cccnc1N1CCN(C(=O)c2ccc(C(=O)NC(C)C)cn2)CC1` [Exam. 25, 2-[1-[3-(ethylamino)-2-pyridyl]piperazin-4-yl-carbonyl]-5-(N-isopropylcarbamoyl)pyridine]: in test [1], the inhibition at 0.01 µg/mL is 54%, the inhibition at 0.1 µg/mL was determined as 67% and the inhibition at 1 µg/mL came to 85%. In test [2], the inhibition at 0.1 µg/mL is 52% and the inhibition at 1 µg/mL was determined as 75%.

Turning to `COCCNC(=O)c1ccc(C(=O)N2CCN(c3ncccc3NC(C)C)CC2)nc1` [Exam. 39, 2-[1-[3-(isopropylamino)-2-pyridyl]piperazin-4-yl-carbonyl]-5-[N-(2-methoxyethyl)carbamoyl]pyridine], in test [1], the inhibition at 0.01 µg/mL is 60%, the inhibition at 0.1 µg/mL is 68% and the inhibition at 1 µg/mL is 80%. Besides, in test [2], the inhibition at 0.1 µg/mL stood at 65% and the inhibition at 1 µg/mL came out at 72%.

As to `CC(C)Nc1cccnc1N1CCN(C(=O)c2ccc(C(=O)NCCN(C)C)cn2)CC1` [Exam. 62, 5-[N-[2-(dimethylamino)ethyl]carbamoyl]-2-[1-[3-(isopropylamino)-2-pyridyl]piperazin-4-yl-carbonyl]pyridine.HCl], in test [1], the inhibition at 0.01 µg/mL is 47%, the inhibition at 0.1 µg/mL worked out at 58% and the inhibition at 1 µg/mL turned out to be 69%. For the same compound, in test [2], the inhibition at 0.1 µg/mL came out at 63% and the inhibition at 1 µg/mL worked out at 79%.

Regarding `CC(C)CNc1cccnc1N1CCN(C(=O)c2ccc(C(=O)NCCCn3ccnc3)cn2)CC1` [Exam. 84, N-[3-(1H-imidazol-1-yl)propyl]-6-[1-[3-(isobutylamino)-2-pyridyl]piperazin-4-yl-carbonyl]nicotinamide], in test [1], the inhibition at 0.01 µg/mL came out at 60%, the inhibition at 0.1 µg/mL was determined as 72% and the inhibition at 1 µg/mL amounted to 88%. Further, in test [2], the inhibition at 0.1 µg/mL was 50% and the inhibition at 1 µg/mL was determined as 62%.

For `O=C(NCCO)c1ccc(C(=O)N2CCN(CCO)CC2)nc1` [Exam. 93, N-(2-hydroxyethyl)-6-[1-(2-hydroxyethyl)piperazin-4-yl-carbonyl]nicotinamide], in test [1], the inhibition at 0.01 µg/mL was 30%, the inhibition at 0.1 µg/mL came to 59% and the inhibition at 1 µg/mL amounted to 73%. In addition, in test [2], the inhibition at 0.1 µg/mL is 25% and the inhibition at 1 µg/mL was found to be 50%.

For `CC(C)Nc1cccnc1N1CCN(C(=O)c2ccc(C(=O)N(C)CC3OCCO3)cn2)CC1` [Exam. 52, 5-[N-[(1,3-Dioxolan-2-yl)methyl]-N-methylcarbamoyl]-2-[1-[3-(isopropylamino)-2-pyridyl]piperazin-4-yl-carbonyl]pyridine], in test [1], the inhibition at 0.01 µg/mL is 39%, the inhibition at 0.1 µg/mL came to 60% and the inhibition at 1 µg/mL came out at 76%. Also, in test [2], the inhibition at 0.1 µg/mL amounted to 50% and the inhibition at 1 µg/mL worked out at 62%.

With `CC(C)CNC(=O)c1ccc(C(=O)N2CCN(CCO)CC2)nc1` [Exam. 88, 6-[1-(2-hydroxyethyl)piperazin-4-yl-carbonyl]-N-isobutylnicotinamide.HCl], in test [1], the inhibition at 0.01 µg/mL was determined as 55%, the inhibition at 0.1 µg/mL was 67% and the inhibition at 1 µg/mL stood at 81%. Further, in test [2], the inhibition at 0.1 µg/mL is 50% and the inhibition at 1 µg/mL was 70%.

`CC(C)Nc1cccnc1N1CCN(C(=O)c2ccc(C(=O)NCCN3CCOCC3)cn2)CC1` [Exam. 59, 2-[1-[3-(isopropylamino)-2-pyridyl]piperazin-4-yl-carbonyl]-5-[N-[2-(morpholin-4-yl)ethyl]carbamoyl]pyridine]: in test [1], the inhibition at 0.01 µg/mL is 49%, the inhibition at 0.1 µg/mL was 60% and the inhibition at 1 µg/mL is 70%. Besides, in test [2], the inhibition at 0.1 µg/mL is 15% and the inhibition at 1 µg/mL was 61%.

Consider `CC(C)Nc1cccnc1N1CCN(C(=O)c2ccc(C(=O)NCCCN3CCCC3=O)cn2)CC1` [Exam. 58, 2-[1-[3-(isopropylamino)-2-pyridyl]piperazin-4-yl-carbonyl]-5-[N-[3-(2-pyrrolidinon-1-yl)propyl]carbamoyl]pyridine.HCl], for which, in test [1], the inhibition at 0.01 µg/mL came out at 63%, the inhibition at 0.1 µg/mL is 72% and the inhibition at 1 µg/mL was 84%. Also, in test [2], the inhibition at 0.1 µg/mL was 45% and the inhibition at 1 µg/mL amounted to 63%.

Take `CC(C)CNC(=O)c1ccc(C(=O)N2CCN(c3ncccc3NC(C)C)CC2)nc1` [Exam. 30, 2-[1-[3-(isopropylamino)-2-pyridyl]piperazin-4-yl-carbonyl]-5-[N-(2-methylpropyl)carbamoyl]pyridine]: in test [1], the inhibition at 0.01 µg/mL turned out to be 61%, the inhibition at 0.1 µg/mL was 65% and the inhibition at 1 µg/mL was found to be 83%. In addition, in test [2], the inhibition at 0.1 µg/mL amounted to 32% and the inhibition at 1 µg/mL came to 58%.

Turning to `CC(C)Nc1cccnc1N1CCN(C(=O)c2ccc(C(=O)NC(C)(C)C)cn2)CC1` [Exam. 28, 5-[N-(1,1-dimethylethyl)carbamoyl]-2-[1-[3-(isopropylamino)-2-pyridyl]piperazin-4-yl-carbonyl]pyridine], in test [1], the inhibition at 0.01 µg/mL worked out at 61%, the inhibition at 0.1 µg/mL came to 72% and the inhibition at 1 µg/mL amounted to 88%. In addition, in test [2], the inhibition at 0.1 µg/mL is 45% and the inhibition at 1 µg/mL is 55%.

For the compound `CC(C)Nc1cccnc1N1CCN(C(=O)c2ccc(C(=O)Nc3ccccn3)cn2)CC1` [Exam. 70, 6-[1-[3-(isopropylamino)-2-pyridyl]piperazin-4-yl-carbonyl]-N-(2-pyridyl)nicotinamide], in test [1], the inhibition at 0.01 µg/mL stood at 26%, the inhibition at 0.1 µg/mL was found to be 55% and the inhibition at 1 µg/mL was 74%. In addition, in test [2], the inhibition at 0.1 µg/mL came out at 55% and the inhibition at 1 µg/mL was determined as 74%.

`CC(C)Nc1cccnc1N1CCN(C(=O)c2ccc(C(=O)NC3CCOC3=O)cn2)CC1` (stereo not shown) [Exam. 55, 2-[1-[3-(Isopropylamino)-2-pyridyl]piperazin-4-yl-carbonyl]-5-[N-(tetrahydro-2-fuanon-3-yl)carbamoyl]pyridine]: in test [1], the inhibition at 0.01 µg/mL worked out at 55%, the inhibition at 0.1 µg/mL amounted to 69% and the inhibition at 1 µg/mL came out at 79%. Besides, in test [2], the inhibition at 0.1 µg/mL came to 31% and the inhibition at 1 µg/mL came out at 62%.

With `COCCCNC(=O)c1ccc(C(=O)N2CCN(c3ncccc3NC(C)C)CC2)nc1` [Exam. 45, 2-[1-[3-(isopropylamino)-2-pyridyl]piperazin-4-yl-carbonyl]-5-[N-(3-methoxypropyl)carbamoyl]pyridine], in test [1], the inhibition at 0.01 µg/mL worked out at 28%, the inhibition at 0.1 µg/mL stood at 53% and the inhibition at 1 µg/mL was found to be 63%. For the same compound, in test [2], the inhibition at 0.1 µg/mL worked out at 47% and the inhibition at 1 µg/mL was determined as 68%.
